# Assays:
# [1] = published values; cited from earlier work
# [2] = Reduction of ABTS radical monoanion in EtOH (absorbance at 750 nm); format: biochemical
# Method: To probe the potential antioxidant activity of Ru1, 2,2′-azino-bis(3-ethylbenzothiazoline-6-sulfonate) radical monoanion (ABTS^•−), which is stable in aerobic, protic media and undergoes reversible one-electron reduction to ABTS^2−, was selected as the substrate for studies of catalytic radical reduction (Scheme 7).
# Accompanying this degradation of 50 μM ABTS^•− was an increase in absorbance at 340 nm corresponding to the formation of 50 μM ABTS^2−, indicating 1:1 conversion of ABTS^•− to ABTS^2− by Ru1.
# To assess its catalytic potential and corresponding regeneration, the reactivity of Ru1 with multiple sequential aliquots of excess ABTS^•− was examined. After the reduction of 50 μM ABTS^•− by 5 μM Ru1 (DMSO stock) was complete (FIG. 12B, black line), 5 additional 50 μM aliquots of ABTS^•− were introduced, whereupon complete ABTS^•− reduction occurred each time (FIG. 12B, grey line, 60 turnovers). Although the time required for complete degradation increased with each successive ABTS^•− aliquot, 5 μM Ru1 nonetheless remained catalytically competent for the complete reduction of […] ABTS^•−.
# [3] = In situ oxidation of ABTS^2− to ABTS^•− via HRP and H2O2 in the presence of antioxidant; format: biochemical
# [4] = Stability (air, moisture, solution); format: physicochemical; settings: isolated powder
smiles,measurement,setting,value
"OCCO [EG, Ethylene glycol]",pKa,[1],14.22
Cc1c(C)c2c(c(C)c1O)CCC(C)(C(=O)O)O2 (stereo not drawn) [Trolox],ABTS^•− reduced,"[2]; 5 μM antioxidant, 50 μM ABTS^•− in EtOH",10 µM
same,decay in radical absorbance at 750 nm,"[2]; 5 μM antioxidant, 50 μM ABTS^•− in EtOH, 25° C.",20%
same,equiv. of ABTS^•− reduced vs antioxidant,"[2]; EtOH, non-catalytic capacity",2 equiv.
same,net oxidation of ABTS^2−,"[3]; 5 μM Trolox, 10 μM H2O2",75%
same,time with no change in absorbance at 734 nm (ABTS^•− formation halted),"[3]; 5 μM Trolox, 10 μM H2O2",4.2 ± 0.4 min
same,initial rate of ABTS^•− formation (v0),"[3]; 5 μM antioxidant (DMSO stock), 10 nM HRP, 50 μM ABTS^2−, first 10 μM H2O2, PBS",3.44±0.11×10^−8 M s^−1
same,maximum ABTS^•− concentration,[3]; first 10 μM H2O2,15.06 ± 0.04 µM
same,time to maximum ABTS^•− concentration,[3]; first 10 μM H2O2,22.0 ± 0.5 min
"CO [MeOH, methanol]",pKa,[1],15.5
"CC(C)O [i-PrOH, isopropanol]",pKa,[1],16.5
"Br.Cc1cc(C)cc(-n2c[n+](CC(=O)[O-])c3ccccc32)c1 [[1H2][Br], 2-(3-{3,5-dimethylphenyl}-benzimidazol-1-ium-1-yl)acetate hydrobromide]",stability to air and moisture,[4],air- and moisture-stable

# — patent US9751081B2, “Self-regenerating antioxidant catalysts and methods of using the same” (Clemson University, priority 2014, dated 2017)
